≈ marks a conversion by molar mass, not a printed value. Marks after values point to notes of the source that are not given here.
Key:
[1] = Clinical DDI cohorts: pomotrelvir with ritonavir 100 mg
[2] = Aqueous phase solubility; type: physicochemical; details: pH 6.71, aqueous buffer
[3] = target: recombinant human CYP3A5 (Homo sapiens, UniProt P20815); assay: Metabolic stability in recombinant human CYP3A5 with NADPH; type: in vitro ADME; details: CYP3A5 share of CYP metabolism, scaled by abundance and ISEF
[4] = test system: Human plasma protein; assay: Human plasma protein binding; type: in vitro ADME; details: PBPK input
[5] = phase I FIH study ref 7; cited from earlier work
[6] = target: CYP2C19 (Homo sapiens, UniProt P33261); assay: Metabolic stability in recombinant human CYP2C19 with NADPH; type: in vitro ADME; details: CYP2C19 share of CYP metabolism, scaled by abundance and ISEF
[7] = radiolabeled pomotrelvir ref 16; cited from earlier work
[8] = target: T1, CYP2C8 (Homo sapiens, UniProt P10632); assay: CYP2C8 inhibition in human liver microsomes; type: in vitro ADME
T1 sequence (P10632 1-490): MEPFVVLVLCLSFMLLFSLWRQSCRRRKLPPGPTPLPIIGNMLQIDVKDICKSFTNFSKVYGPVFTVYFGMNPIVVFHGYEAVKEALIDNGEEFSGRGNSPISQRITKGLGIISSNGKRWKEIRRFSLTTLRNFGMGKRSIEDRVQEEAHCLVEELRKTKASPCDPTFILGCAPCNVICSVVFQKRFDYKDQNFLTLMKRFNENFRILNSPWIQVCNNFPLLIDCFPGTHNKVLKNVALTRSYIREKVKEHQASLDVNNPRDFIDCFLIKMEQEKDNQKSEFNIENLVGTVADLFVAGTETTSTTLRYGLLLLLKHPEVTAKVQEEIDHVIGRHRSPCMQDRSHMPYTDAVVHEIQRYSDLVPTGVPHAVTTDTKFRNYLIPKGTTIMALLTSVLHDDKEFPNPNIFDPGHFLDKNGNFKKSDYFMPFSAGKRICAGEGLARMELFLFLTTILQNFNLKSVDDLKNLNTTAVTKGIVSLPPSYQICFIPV

[9] = test system: BCRP; assay: MDCK‐BCRP apparent permeability; type: in vitro ADME, canine; details: dog
[10] = test system: Madin Darby canine kidney–breast cancer resistance protein (BCRP) cell lines; assay: MDCK‐BCRP apparent permeability; type: in vitro ADME; details: MDCK‐BCRP cell line
[11] = target: T1, CYP2C8; assay: Metabolic stability in recombinant human CYP2C8 with NADPH; type: in vitro ADME; details: CYP2C8 share of CYP metabolism, scaled by abundance and ISEF
[12] = test system: human colon adenocarcinoma clone 2 (Caco‐2); assay: Caco‐2 apparent permeability; type: in vitro ADME; details: Caco‐2 cell line
[13] = (20 mg PBI + 100 mg RTV, SD)/(100 mg POMO, SD)
[14] = (50 mg PBI + 100 mg RTV, Day1)/(100 mg POMO, SD)
[15] = (50 mg PBI + 100 mg RTV, Day5)/(100 mg POMO, SD), AUClast/Dose over AUCinf/Dose
[16] = (50 mg PBI + 100 mg RTV, Day10)/(100 mg POMO, SD), AUClast/Dose over AUCinf/Dose

recombinant human CYP3A5, sequence (P20815 whole entry): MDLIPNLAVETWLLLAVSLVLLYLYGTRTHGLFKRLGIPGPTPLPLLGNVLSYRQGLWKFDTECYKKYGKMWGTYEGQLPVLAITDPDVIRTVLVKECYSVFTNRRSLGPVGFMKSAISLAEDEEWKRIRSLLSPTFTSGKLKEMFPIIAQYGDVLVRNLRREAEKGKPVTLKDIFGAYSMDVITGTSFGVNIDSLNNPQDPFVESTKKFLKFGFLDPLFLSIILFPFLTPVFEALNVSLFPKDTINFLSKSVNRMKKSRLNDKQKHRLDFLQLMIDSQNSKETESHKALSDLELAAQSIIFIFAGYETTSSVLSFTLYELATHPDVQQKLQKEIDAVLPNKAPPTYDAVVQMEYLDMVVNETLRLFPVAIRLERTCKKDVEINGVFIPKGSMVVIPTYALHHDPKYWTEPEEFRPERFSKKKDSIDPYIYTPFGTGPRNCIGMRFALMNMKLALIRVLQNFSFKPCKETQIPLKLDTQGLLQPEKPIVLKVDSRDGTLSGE
CYP2C19, sequence (P33261 whole entry): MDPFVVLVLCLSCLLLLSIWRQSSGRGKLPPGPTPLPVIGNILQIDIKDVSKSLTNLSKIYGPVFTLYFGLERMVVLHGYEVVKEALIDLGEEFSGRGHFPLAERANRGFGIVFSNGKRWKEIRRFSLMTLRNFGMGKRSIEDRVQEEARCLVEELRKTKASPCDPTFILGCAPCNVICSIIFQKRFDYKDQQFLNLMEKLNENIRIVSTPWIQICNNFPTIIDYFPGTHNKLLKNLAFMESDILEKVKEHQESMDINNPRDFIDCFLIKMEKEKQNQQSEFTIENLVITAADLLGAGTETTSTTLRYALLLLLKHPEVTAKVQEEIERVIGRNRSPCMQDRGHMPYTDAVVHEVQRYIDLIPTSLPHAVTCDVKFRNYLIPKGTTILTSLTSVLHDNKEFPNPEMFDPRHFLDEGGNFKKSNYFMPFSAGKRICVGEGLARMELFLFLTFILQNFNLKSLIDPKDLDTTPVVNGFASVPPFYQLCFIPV

- change of dose‐normalized systemic exposure in the presence of ritonavir ([1]; 100 mg ritonavir, all cohorts and parameters): 0.92–1.54 fold
- AUCinf/dose GMR (90% CI) [1, 13]: 0.92 (0.67, 1.26)
- AUClast/dose GMR (90% CI) [1, 13]: 1.06 (0.68, 1.65)
- Cmax/dose GMR (90% CI) [1, 13]: 0.97 (0.76, 1.22)
- AUCinf/dose GMR (90% CI) [1, 14]: 1.54 (1.13, 2.1)
- AUClast/dose GMR (90% CI) [1, 14]: 1.38 (1.08, 1.76)
- Cmax/dose GMR (90% CI) [1, 14]: 1.46 (1.16, 1.84)
- Cmax/dose GMR (90% CI) ([1]; (50 mg PBI + 100 mg RTV, Day5)/(100 mg POMO, SD)): 1.3 (0.9, 1.89)
- AUCinf/dose GMR (90% CI) [1, 15]: 1.34 (0.96, 1.87) ^a
- AUClast/dose GMR (90% CI) [1, 15]: 1.34 (0.96, 1.87) ^a
- Cmax/dose GMR (90% CI) ([1]; (50 mg PBI + 100 mg RTV, Day10)/(100 mg POMO, SD)): 1.41 (1.05, 1.91)
- AUCinf/dose GMR (90% CI) [1, 16]: 1.37 (1.05, 1.79) ^b
- AUClast/dose GMR (90% CI) [1, 16]: 1.37 (1.05, 1.79) ^b
- increase in exposure upon coadministration with ritonavir ([1]; single or multiple doses): < 50%
- solubility [2]: 10 µg/mL (≈ 21.9 µM)
- Relative Contribution (fm) [3]: negligible
- Main binding protein [4]: HSA
- Relative Contribution (fm) [6]: negligible
- Ki [8]: 1.93 µM
- inhibitory effect on CYP2C8 in vitro (in words) ([8]; main text summary): weak to moderate inhibition
- Papp [9]: 1.01 ×10⁻⁶ cm/s
- efflux ratio [10]: large
- Relative Contribution (fm) [11]: 11%
- efflux ratio [12]: large
- contribution of nonhepatic, presystemic hydrolysis to apparent clearance (following oral dosing, thought to contribute): ~ 50%
- CL/F (mean apparent oral clearance) (oral dose of 300 mg administered with food (FIH study)): 33.19 L/h
SMILES: N#C[C@H](C[C@@H]1CCCNC1=O)NC(=O)[C@H](CC1CC1)NC(=O)c1cc2cccc(Cl)c2[nH]1 [Pomotrelvir, pomotrelvir]
- oral bioavailability [5]: good
- tolerability [5]: well tolerated
- major route of metabolism and clearance [7]: nonhepatic hydrolysis
- urinary excretion of intact drug [7]: Minimal

— article PMC10583239 (CPT: Pharmacometrics & Systems Pharmacology, 2023)
